Measured values published in ChEMBL document CHEMBL5465560, “Selectivity Literature for EUbOPEN Chemogenomic Library” (2024).
pIC50: −log10 of the molar value.

What was measured:
[1] = molecular target: SRSF protein kinase 1 (Homo sapiens, UniProt Q96SB4); experiment: Selectivity interaction (Kinase panel (DSF assay)) EUB0001558a SRPK1
[2] = molecular target: Protein arginine N-methyltransferase 5 (Homo sapiens, UniProt O14744); experiment: Selectivity interaction (Methyltransferase screen (radiometric assays, panel of 8 PRMTs, 21 protein lysine methyltransferases, 3 DNA methyltransferases, and one RNA methyltransferase)) EUB0000272b PRMT5
Sequence of Protein arginine N-methyltransferase 5 (O14744 whole entry): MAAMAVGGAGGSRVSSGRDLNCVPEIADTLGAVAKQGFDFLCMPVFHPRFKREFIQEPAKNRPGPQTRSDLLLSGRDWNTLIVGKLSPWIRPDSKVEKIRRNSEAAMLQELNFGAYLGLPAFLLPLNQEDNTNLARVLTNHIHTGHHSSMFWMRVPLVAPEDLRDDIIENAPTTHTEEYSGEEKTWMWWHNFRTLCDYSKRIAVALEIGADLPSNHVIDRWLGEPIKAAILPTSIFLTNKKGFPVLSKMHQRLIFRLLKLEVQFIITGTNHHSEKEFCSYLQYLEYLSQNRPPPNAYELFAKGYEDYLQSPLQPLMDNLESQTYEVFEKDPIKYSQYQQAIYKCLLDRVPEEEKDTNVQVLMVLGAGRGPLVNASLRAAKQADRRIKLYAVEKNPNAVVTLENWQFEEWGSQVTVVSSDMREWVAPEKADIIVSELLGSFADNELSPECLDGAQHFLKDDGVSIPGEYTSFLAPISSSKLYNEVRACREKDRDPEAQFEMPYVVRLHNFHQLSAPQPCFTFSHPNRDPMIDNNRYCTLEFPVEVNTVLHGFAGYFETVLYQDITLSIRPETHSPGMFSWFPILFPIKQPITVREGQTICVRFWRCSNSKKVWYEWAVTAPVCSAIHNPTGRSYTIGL

[3] = molecular target: TRAF2 and NCK-interacting protein kinase (Homo sapiens) (UniProt Q9UKE5); experiment: Selectivity interaction (KinomeScan (DiscoverX)) EUB0000092b TNIK; settings: at 10 µM
Sequence of TRAF2 and NCK-interacting protein kinase (Homo sapiens) (Q9UKE5 whole entry, looked up): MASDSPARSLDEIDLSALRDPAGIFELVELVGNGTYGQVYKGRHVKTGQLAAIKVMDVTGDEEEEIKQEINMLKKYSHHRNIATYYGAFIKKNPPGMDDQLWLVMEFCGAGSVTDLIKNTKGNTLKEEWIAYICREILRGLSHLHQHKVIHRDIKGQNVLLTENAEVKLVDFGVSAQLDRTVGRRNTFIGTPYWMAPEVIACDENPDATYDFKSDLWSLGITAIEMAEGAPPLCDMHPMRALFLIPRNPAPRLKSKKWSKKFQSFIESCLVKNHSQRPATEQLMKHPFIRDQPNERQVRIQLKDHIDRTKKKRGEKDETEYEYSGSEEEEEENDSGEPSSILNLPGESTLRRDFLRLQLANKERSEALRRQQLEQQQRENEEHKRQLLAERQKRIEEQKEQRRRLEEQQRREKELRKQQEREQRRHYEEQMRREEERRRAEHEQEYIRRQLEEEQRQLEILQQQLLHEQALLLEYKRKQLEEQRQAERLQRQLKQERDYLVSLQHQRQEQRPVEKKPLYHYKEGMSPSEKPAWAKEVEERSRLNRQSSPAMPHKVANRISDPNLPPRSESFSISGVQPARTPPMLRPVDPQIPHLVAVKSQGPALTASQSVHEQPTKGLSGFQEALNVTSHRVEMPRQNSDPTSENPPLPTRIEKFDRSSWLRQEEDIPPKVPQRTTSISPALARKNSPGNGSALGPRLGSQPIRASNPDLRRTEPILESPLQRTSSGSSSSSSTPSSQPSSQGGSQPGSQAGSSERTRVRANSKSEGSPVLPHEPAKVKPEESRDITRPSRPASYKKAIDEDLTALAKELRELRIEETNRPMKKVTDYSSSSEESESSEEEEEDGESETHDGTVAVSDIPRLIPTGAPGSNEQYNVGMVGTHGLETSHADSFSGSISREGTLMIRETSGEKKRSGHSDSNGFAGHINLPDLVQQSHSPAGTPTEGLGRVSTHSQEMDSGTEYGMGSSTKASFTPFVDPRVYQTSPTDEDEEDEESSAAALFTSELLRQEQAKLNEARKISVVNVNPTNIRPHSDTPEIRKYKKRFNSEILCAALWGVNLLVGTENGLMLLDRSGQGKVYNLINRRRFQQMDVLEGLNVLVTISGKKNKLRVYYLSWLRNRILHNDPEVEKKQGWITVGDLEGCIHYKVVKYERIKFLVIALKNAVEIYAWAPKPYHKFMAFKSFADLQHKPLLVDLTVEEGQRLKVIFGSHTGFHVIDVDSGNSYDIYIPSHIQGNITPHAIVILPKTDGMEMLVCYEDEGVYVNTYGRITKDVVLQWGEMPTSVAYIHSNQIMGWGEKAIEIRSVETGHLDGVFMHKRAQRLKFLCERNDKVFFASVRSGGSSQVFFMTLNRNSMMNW

[4] = molecular target: T1, Serine/threonine-protein kinase Nek5 (Homo sapiens) (UniProt Q6P3R8); experiment: Selectivity interaction (KinomeScan (DiscoverX)) EUB0000655a NEK5; settings: at 10 µM
T1 sequence (whole entry): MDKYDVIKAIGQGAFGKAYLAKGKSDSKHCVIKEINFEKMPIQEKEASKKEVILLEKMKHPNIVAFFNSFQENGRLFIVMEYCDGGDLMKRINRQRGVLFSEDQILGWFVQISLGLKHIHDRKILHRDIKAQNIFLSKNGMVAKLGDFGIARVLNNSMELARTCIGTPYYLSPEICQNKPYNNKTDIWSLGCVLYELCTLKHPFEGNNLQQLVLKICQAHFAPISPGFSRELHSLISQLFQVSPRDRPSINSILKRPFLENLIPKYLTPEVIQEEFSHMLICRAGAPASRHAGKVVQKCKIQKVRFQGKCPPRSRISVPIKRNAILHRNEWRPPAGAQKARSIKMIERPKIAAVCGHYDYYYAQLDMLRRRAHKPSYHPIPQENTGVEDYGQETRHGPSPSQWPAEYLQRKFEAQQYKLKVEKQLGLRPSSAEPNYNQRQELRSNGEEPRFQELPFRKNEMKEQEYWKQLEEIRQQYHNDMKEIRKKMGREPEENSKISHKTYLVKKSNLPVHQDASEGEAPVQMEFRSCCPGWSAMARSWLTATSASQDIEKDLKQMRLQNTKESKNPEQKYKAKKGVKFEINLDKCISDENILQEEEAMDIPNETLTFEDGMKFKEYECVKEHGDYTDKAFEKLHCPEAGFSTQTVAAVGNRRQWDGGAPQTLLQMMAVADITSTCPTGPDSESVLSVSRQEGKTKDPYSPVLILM

[5] = molecular target: T2, Protein kinase C iota type (Homo sapiens) (UniProt P41743); experiment: Selectivity interaction (ProQinase) EUB0000171b PRKCI
T2 sequence (whole entry): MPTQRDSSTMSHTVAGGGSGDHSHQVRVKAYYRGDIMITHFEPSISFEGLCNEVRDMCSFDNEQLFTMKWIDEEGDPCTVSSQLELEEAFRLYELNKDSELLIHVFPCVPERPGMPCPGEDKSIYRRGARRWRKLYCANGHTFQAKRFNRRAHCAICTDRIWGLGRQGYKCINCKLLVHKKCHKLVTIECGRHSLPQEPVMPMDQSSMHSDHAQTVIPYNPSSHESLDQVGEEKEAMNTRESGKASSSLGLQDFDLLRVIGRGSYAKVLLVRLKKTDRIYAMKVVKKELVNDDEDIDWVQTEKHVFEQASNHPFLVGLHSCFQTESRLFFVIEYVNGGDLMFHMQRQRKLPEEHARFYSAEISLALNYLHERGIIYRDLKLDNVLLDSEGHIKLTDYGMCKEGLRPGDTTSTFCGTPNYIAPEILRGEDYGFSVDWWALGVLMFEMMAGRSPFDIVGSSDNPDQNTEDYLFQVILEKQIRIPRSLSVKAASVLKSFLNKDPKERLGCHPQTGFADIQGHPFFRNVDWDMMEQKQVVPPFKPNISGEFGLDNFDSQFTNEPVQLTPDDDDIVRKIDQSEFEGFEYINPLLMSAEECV

[6] = molecular target: Serine/threonine-protein kinase N1 (Homo sapiens, UniProt Q16512); experiment: Selectivity interaction (Kinase panel (33PanQinase(R) Activity Assay)) EUB0000877a PKN1
Sequence of Serine/threonine-protein kinase N1 (Q16512 whole entry): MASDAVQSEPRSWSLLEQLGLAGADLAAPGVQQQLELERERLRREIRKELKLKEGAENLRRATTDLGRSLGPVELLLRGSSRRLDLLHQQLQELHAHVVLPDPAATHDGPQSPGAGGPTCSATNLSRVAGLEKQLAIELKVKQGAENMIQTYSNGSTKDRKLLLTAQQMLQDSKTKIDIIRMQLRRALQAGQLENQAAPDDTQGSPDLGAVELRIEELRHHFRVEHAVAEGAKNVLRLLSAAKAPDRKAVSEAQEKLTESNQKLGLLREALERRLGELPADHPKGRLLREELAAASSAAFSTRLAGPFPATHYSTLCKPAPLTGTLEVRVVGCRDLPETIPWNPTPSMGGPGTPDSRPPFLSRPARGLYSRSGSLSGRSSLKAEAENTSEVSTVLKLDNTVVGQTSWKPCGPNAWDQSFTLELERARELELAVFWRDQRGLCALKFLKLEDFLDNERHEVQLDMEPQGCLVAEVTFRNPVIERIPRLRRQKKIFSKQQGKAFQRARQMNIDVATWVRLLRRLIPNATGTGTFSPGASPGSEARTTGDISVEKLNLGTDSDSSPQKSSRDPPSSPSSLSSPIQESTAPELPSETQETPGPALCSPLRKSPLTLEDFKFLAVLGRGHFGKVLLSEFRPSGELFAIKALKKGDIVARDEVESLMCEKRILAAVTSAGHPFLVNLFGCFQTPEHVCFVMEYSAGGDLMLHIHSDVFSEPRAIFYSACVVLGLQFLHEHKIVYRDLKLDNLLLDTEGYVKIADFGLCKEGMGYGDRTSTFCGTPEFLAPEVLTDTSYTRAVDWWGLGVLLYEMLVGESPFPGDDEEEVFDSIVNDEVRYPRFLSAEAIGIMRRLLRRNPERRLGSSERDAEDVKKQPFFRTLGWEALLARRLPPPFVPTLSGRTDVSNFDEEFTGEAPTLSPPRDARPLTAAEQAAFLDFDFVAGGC

[7] = molecular target: Tyrosine-protein kinase HCK (Homo sapiens) (UniProt P08631); experiment: Selectivity interaction (KinomeScan (DiscoverX)) EUB0000607a HCK; settings: at 10 µM
Sequence of Tyrosine-protein kinase HCK (Homo sapiens) (P08631 2-526 limits assumed): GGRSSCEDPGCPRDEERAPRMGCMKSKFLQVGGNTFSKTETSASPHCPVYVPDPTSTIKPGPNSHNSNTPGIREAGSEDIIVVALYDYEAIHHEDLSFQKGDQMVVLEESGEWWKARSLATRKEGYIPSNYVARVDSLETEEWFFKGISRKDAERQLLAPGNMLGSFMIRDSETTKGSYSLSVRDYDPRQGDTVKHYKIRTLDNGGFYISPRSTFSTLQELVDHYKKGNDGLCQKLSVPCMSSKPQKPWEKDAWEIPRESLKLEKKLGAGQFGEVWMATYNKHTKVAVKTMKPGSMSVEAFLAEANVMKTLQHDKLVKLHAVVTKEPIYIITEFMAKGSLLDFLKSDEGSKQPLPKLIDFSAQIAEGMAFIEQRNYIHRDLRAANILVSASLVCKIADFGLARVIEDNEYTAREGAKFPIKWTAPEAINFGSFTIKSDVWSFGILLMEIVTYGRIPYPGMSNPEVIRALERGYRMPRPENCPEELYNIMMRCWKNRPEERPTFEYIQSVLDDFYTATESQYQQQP

[8] = molecular target: T3, Cyclin-dependent kinase-like 2 (Homo sapiens) (UniProt Q92772); experiment: Selectivity interaction (KinomeScan (DiscoverX)) EUB0001049a CDKL2; settings: at 1 µM
T3 sequence (whole entry): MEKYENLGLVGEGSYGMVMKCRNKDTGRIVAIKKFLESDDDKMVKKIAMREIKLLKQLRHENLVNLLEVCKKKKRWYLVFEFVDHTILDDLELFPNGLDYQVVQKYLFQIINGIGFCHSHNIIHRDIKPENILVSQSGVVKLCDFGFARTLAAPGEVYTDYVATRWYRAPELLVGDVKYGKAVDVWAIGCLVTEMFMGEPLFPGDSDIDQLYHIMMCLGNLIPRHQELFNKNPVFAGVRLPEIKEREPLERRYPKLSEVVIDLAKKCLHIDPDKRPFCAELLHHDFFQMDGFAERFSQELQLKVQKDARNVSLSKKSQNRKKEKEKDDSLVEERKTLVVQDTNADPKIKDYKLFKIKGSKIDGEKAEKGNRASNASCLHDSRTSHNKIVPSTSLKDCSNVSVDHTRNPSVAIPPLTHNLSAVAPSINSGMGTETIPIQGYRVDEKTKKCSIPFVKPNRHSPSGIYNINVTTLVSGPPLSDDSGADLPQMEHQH

[9] = molecular target: Serine/threonine-protein kinase MARK2 (Homo sapiens) (UniProt Q7KZI7); experiment: Selectivity interaction (KinomeScan (DiscoverX)) EUB0000695a MARK2; settings: at 100 nM
Sequence of Serine/threonine-protein kinase MARK2 (Homo sapiens) (Q7KZI7 whole entry): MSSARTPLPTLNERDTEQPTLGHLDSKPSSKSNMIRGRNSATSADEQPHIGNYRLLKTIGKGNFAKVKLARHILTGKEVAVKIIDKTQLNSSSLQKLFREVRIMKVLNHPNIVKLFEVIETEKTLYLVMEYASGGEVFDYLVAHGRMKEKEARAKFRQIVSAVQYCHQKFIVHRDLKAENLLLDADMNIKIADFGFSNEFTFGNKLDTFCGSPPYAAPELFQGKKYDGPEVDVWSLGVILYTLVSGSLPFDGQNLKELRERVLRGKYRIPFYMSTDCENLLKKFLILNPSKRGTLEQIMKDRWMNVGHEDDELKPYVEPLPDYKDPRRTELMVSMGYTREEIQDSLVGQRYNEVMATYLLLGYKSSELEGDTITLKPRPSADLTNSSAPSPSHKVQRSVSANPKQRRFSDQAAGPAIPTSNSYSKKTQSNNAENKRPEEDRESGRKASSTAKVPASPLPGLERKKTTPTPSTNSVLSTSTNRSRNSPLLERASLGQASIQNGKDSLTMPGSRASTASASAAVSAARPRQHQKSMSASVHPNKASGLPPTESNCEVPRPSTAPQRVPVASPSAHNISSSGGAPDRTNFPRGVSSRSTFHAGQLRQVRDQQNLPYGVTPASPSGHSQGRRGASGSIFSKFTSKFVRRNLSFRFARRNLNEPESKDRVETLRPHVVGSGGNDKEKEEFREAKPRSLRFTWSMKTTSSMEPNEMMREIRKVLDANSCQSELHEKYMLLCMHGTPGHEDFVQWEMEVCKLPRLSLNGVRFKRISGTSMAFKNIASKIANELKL

[10] = molecular target: Ribosomal protein S6 kinase alpha-5 (Homo sapiens) (UniProt O75582); experiment: Selectivity interaction (KinomeScan (DiscoverX)) EUB0000618a RPS6KA5; settings: at 10 µM
Sequence of Ribosomal protein S6 kinase alpha-5 (Homo sapiens) (O75582 whole entry, looked up): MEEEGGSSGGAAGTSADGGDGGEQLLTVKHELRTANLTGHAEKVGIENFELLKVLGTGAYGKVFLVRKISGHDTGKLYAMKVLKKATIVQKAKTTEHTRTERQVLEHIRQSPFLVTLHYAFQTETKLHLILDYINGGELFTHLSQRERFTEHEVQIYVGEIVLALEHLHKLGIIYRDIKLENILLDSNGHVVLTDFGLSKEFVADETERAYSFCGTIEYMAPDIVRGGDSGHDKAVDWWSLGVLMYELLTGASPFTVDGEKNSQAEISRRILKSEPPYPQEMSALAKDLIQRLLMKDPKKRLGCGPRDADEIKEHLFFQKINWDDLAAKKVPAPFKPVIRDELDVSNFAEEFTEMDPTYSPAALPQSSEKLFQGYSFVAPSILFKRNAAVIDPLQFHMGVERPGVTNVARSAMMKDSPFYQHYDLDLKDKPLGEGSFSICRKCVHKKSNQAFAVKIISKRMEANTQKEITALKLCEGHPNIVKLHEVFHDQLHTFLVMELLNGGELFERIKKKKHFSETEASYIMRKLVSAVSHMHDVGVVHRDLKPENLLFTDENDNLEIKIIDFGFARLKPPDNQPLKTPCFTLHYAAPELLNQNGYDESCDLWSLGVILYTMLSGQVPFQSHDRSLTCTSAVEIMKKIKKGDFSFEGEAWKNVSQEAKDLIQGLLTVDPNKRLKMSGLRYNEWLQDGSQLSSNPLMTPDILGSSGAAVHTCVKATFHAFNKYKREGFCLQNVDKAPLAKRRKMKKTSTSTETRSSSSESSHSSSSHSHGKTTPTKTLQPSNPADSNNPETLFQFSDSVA

[11] = molecular target: T4, Serine/threonine-protein kinase Chk1 (Homo sapiens) (UniProt O14757); experiment: Selectivity interaction (Ambit KINOMEscan and KiNATiv profiling in Jurkat cells) EUB0000090b CHEK1; type: cell-based; settings: at 1 µM
T4 sequence (whole entry): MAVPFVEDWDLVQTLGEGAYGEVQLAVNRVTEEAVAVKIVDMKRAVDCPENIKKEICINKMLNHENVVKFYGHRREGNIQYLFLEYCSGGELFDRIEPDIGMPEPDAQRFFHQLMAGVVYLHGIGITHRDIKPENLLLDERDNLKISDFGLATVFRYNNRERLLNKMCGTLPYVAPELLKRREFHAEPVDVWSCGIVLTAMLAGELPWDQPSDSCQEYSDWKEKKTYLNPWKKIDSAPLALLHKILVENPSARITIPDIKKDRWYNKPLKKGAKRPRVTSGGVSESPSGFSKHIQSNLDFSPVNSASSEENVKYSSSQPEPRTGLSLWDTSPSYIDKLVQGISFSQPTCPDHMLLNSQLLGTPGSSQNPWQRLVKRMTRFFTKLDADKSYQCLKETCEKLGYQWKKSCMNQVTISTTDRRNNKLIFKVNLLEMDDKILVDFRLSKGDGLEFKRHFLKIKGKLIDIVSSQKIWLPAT

CC(C)(O)[C@H](F)CN1Cc2cc(NC(=O)c3cnn4cccnc34)c(N3CCOCC3)cc2C1=O
dTM [1]: 1.1 K

Cc1cc(C)cc([C@H]2c3cc(C)ccc3NC(=O)CN2C(=O)c2ccc(Br)s2)c1
% of activity ([2]; at 1 µM): 98.7% | % of activity ([2]; at 10 µM): 99%

CCC(=O)N1CCN(c2ccc(-n3c(=O)ccc4cnc5ccc(-c6cnc7ccccc7c6)cc5c43)cc2C(F)(F)F)CC1
% of control [3]: 39%

CN(C)CCOc1ccc(-c2nc(-c3ccncc3)c(-c3ccc4c(c3)CC/C4=N\O)[nH]2)cc1
% of control [4]: 74%

C=CC(=O)Nc1cccc(C(=O)Nc2ccc(Nc3cc(-c4[nH]c(SC)nc4C)ccn3)cc2)c1
% of control ([5]; at 1 µM): 80% | % of control ([5]; at 5 µM): 52%

CCC(=O)N1CC[C@H](Nc2ncnc3c2CN(c2cnc(OC)c(C(F)(F)F)c2)CC3)C1 [LENIOLISIB]
pIC50 [6]: < 5.00

CNC(=O)Nc1ccc(-c2nc(N3CC4CCC(C3)O4)c3cnn(C4CCC5(CC4)OCCO5)c3n2)cc1
% of control [7]: 100%

COc1cc(Nc2nc(C)cc(-c3cnn4nc(OC)ccc34)n2)cc(C(F)(F)F)c1
% of control [8]: 100%

Cc1cc(F)c(C(=O)Nc2cccc(-c3nncn3C(C)C)n2)cc1-n1cnc(C2CC2)c1
% of control [9]: 100%

O[C@H]1CC[C@H](Nc2ncc3nc(Nc4c(F)cc(F)cc4F)n([C@H]4CCOC4)c3n2)CC1
% of control [10]: 68%

CN(C)C/C=C/C(=O)Nc1ccc(C(=O)N2CCCC(Nc3ncc(Cl)c(-c4c[nH]c5ccccc45)n3)C2)cc1 (stereo not drawn)
% of control [11]: 89%
